Data: US20250129104A1, “7H-PYRROLO[2,3-D]PYRIMIDINES AND PREPARATION AND USES THEREOF” (BioSplice Therapeutics, Inc., priority 2021, published 2025)
pEC50: −log10 of the molar value.

target: recombinant DYRK1A kinase (Homo sapiens (Human), UniProt Q13627); assay: DYRK1A kinase assay (Ser/Thr 18 peptide Z-lyte FRET assay); type: biochemical; conditions: DYRK1A kinase activity; 15 μM ATP, 1 h room temperature; method text calls the value IC50
In short: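 FRET Z-lyte read-out (coumarin/fluorescein ratio, % phosphorylation) after 1 h development; IC50 from non-linear curve fit. Reaction: 0.25 μg/mL recombinant human DYRK1A, Ser/Thr 18 peptide 4 μM, ATP 15 μM, compound in 11-point 1:3 series from 10 μM, 1 h, room temperature, duplicate wells.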

Row | Compound | pEC50
1 | COc1nc(NC2CC3(COC3)C2)nc2[nH]cc(-c3ccn4nccc4c3)c12 [Compound 3321, 4-Methoxy-5-(pyrazolo[1,5-a]pyridin-5-yl)-N-(2-oxaspiro[3.3]heptan-6-yl)-7H-pyrrolo[2,3-d]pyrimidin-2-amine] | 7.43
2 | FC(F)(F)CCNc1ncc2c(-c3ccc4ncnn4c3)c[nH]c2n1 [Compound 736, 5-([1,2,4]Triazolo[1,5-a]pyridin-6-yl)-N-(3,3,3-trifluoropropyl)-7H-pyrrolo [2,3-d]pyrimidin-2-amine] | 7.34
3 | OCc1cnc2c(F)cc(-c3c[nH]c4nc(C5CC5)ncc34)cn12 [Compound 363, (6-(2-Cyclopropyl-7H-pyrrolo[2,3-d]pyrimidin-5-yl)-8-fluoroimidazo[1,2-a]pyridin-3-yl)methanol] | 7.38
4 | CC(C)CNc1ncc2c(-c3cc(F)c4nccn4c3)c[nH]c2n1 [Compound 196, 5-(8-Fluoroimidazo[1,2-a]pyridin-6-yl)-N-isobutyl-7H-pyrrolo[2,3-d]pyrimidin-2-amine] | 7.22
5 | COc1nc(N[C@H]2CC[C@@H](OC(F)(F)F)CC2)nc2[nH]cc(-c3ccc4nnn(C)c4c3)c12 [Compound 2289, 4-Methoxy-5-(1-methyl-1H-benzo[d][1,2,3]triazol-6-yl)-N-(cis-4-(trifluoromethoxy)cyclohexyl)-7H-pyrrolo[2,3-d]pyrimidin-2-amine] | 5.83
6 | COc1ncc(-c2c[nH]c3nc(NCC(C)(C)F)ncc23)cn1 [Compound 9, N-(2-Fluoro-2-methylpropyl)-5-(2-methoxypyrimidin-5-yl)-7H-pyrrolo[2,3-d]pyrimidin-2-amine] | 6.11
7 | FC(F)O[C@H]1CC[C@H](Nc2ncc3c(-c4ccn5nccc5n4)c[nH]c3n2)CC1 [Compound 3421, N-(trans-4-(difluoromethoxy)cyclohexyl)-5-(pyrazolo[1,5-a]pyrimidin-5-yl)-7H-pyrrolo[2,3-d]pyrimidin-2-amine] | 7.55
8 | COc1nc(NC2CCC(F)(F)CC2)nc2[nH]cc(-c3ccc4nnn(CC(F)F)c4c3)c12 [Compound 2198, N-(4,4-Difluorocyclohexyl)-5-(1-(2,2-difluoroethyl)-1H-benzo[d][1,2,3]triazol-6-yl)-4-methoxy-7H-pyrrolo[2,3-d]pyrimidin-2-amine] | 6.77
9 | COc1nc(NC2CCC(F)(F)CC2)nc2[nH]cc(-c3ccc4nccn4c3)c12 [Compound 2241, N-(4,4-Difluorocyclohexyl)-5-(imidazo[1,2-a]pyridin-6-yl)-4-methoxy-7H-pyrrolo[2,3-d]pyrimidin-2-amine] | 7.57
10 | C[C@H](Nc1ncc2c(-c3ccc4ncnn4c3)c[nH]c2n1)C(F)(F)F [Compound 735, (S)-5-([1,2,4]Triazolo[1,5-a]pyridin-6-yl)-N-(1,1,1-trifluoropropan-2-yl)-7H-pyrrolo[2,3-d]pyrimidin-2-amine] | 7.10
11 | Fc1cc(-c2c[nH]c3nc(NC4CCOCC4)ncc23)cn2ccnc12 [Compound 221, 5-(8-Fluoroimidazo[1,2-a]pyridin-6-yl)-N-(tetrahydro-2H-pyran-4-yl)-7H-pyrrolo[2,3-d]pyrimidin-2-amine] | 7.64
12 | COc1ccc(-c2c[nH]c3nc(NC4CCN(S(C)(=O)=O)CC4)ncc23)c(OC)c1 [Compound 2, 5-(2,4-Dimethoxyphenyl)-N-(1-(methylsulfonyl)piperidin-4-yl)-7H-pyrrolo [2,3-d]pyrimidin-2-amine] | 7.36
13 | COc1nc(N[C@H]2CC[C@@H](OC(F)(F)F)CC2)nc2[nH]cc(-c3cc(F)c4nccn4c3)c12 [Compound 2260, 5-(8-Fluoroimidazo[1,2-a]pyridin-6-yl)-4-methoxy-N-(cis-4-(trifluoromethoxy)cyclohexyl)-7H-pyrrolo[2,3-d]pyrimidin-2-amine] | 6.61
14 | C[C@@H](Nc1ncc2c(-c3ccn4ncc(F)c4n3)c[nH]c2n1)C(F)(F)F [Compound 1679, (R)-5-(3-Fluoropyrazolo[1,5-a]pyrimidin-5-yl)-N-(1,1,1-trifluoropropan-2-yl)-7H-pyrrolo[2,3-d]pyrimidin-2-amine] | 7.03
15 | Cc1cn2cc(-c3c[nH]c4nc(NC5CCC(F)(F)CC5)ncc34)cc(F)c2n1 [Compound 258, N-(4,4-Difluorocyclohexyl)-5-(8-fluoro-2-methylimidazo[1,2-a]pyridin-6-yl)-7H-pyrrolo[2,3-d]pyrimidin-2-amine] | 7.34
16 | CNc1ncc2c(-c3ccn4ncc(C(=O)N5CCN(C)CC5)c4c3)c[nH]c2n1 [Compound 2032, (5-(2-(Methylamino)-7H-pyrrolo[2,3-d]pyrimidin-5-yl)pyrazolo[1,5-a]pyridin-3-yl)(4-methylpiperazin-1-yl)methanone] | 7.23
17 | COc1nc(NC2CCC(F)(F)CC2)nc2[nH]cc(-c3ccc4nc(C)n(CC(F)F)c4n3)c12 [Compound 2279, N-(4,4-Difluorocyclohexyl)-5-(3-(2,2-difluoroethyl)-2-methyl-3H-imidazo[4,5-b]pyridin-5-yl)-4-methoxy-7H-pyrrolo[2,3-d]pyrimidin-2-amine] | 6.60
18 | 5-(3-Chloropyrazolo[1,5-a]pyrimidin-5-yl)-N-(2-fluoro-2-methylpropyl)-7H-pyrrolo[2,3-d]pyrimidin-2-amine [Compound 1680] | 7.58

Compounds with a higher pEC50, results first:

Row | pEC50 | Compound
19 | 7.72 | CN1CCC(Nc2ncc3c(-c4ccn5nccc5n4)c[nH]c3n2)CC1 [Compound 1667, N-(1-Methylpiperidin-4-yl)-5-(pyrazolo[1,5-a]pyrimidin-5-yl)-7H-pyrrolo [2,3-d]pyrimidin-2-amine]
20 | 7.81 | c1cnc2ccc(-c3ncc4c(-c5ccc6ncccc6c5)c[nH]c4n3)cc2c1 [Compound 1896, 6,6′-(7H-pyrrolo[2,3-d]pyrimidine-2,5-diyl)diquinoline]
21 | 7.92 | CC(C)(F)CNc1ncc2c(-c3ccc4ncncc4c3)c[nH]c2n1 [Compound 1956, N-(2-Fluoro-2-methylpropyl)-5-(quinazolin-6-yl)-7H-pyrrolo[2,3-d]pyrimidin-2-amine]
22 | 7.99 | CCOc1nc(N[C@H](C)C(F)(F)F)nc2[nH]cc(-c3ccc4nccn4c3)c12 [Compound 2177, (R)-4-Ethoxy-5-(imidazo[1,2-a]pyridin-6-yl)-N-(1,1,1-trifluoropropan-2-yl)-7H-pyrrolo[2,3-d]pyrimidin-2-amine]
23 | 8.11 | N-(cis-3-Methoxycyclobutyl)-5-(1-methyl-1H-benzo[d][1,2,3]triazol-6-yl)-7H-pyrrolo[2,3-d]pyrimidin-2-amine [Compound 2051]
24 | 8.21 | COCCO[C@H]1CC[C@@H](Nc2ncc3c(-c4ccc5ncccc5c4)c[nH]c3n2)CC1 [Compound 2226, N-(cis-4-(2-Methoxyethoxy)cyclohexyl)-5-(quinolin-6-yl)-7H-pyrrolo[2,3-d]pyrimidin-2-amine]
25 | 8.22 | O=C(NCC1CC(F)(F)C1)c1cnn2ccc(-c3c[nH]c4nc(C5CC5)ncc34)cc12 [Compound 1422, 5-(2-Cyclopropyl-7H-pyrrolo[2,3-d]pyrimidin-5-yl)-N-((3,3-difluorocyclobutyl)methyl)pyrazolo[1,5-a]pyridine-3-carboxamide]
26 | 8.23 | C[C@]1(O)CC[C@@H](Nc2ncc3c(-c4ccn5nccc5c4)c[nH]c3n2)CC1 [Compound 2234, cis-1-Methyl-4-((5-(pyrazolo[1,5-a]pyridin-5-yl)-7H-pyrrolo[2,3-d]pyrimidin-2-yl)amino)cyclohexan-1-ol]
27 | 8.26 | C[C@@H](Nc1ncc2c(-c3ccc4ncc(F)n4c3)c[nH]c2n1)C(F)(F)F [Compound 158, (R)-5-(3-Fluoroimidazo[1,2-a]pyridin-6-yl)-N-(1,1,1-trifluoropropan-2-yl)-7H-pyrrolo[2,3-d]pyrimidin-2-amine]
28 | 8.38 | COc1nc(N[C@H]2CC[C@@](C)(O)CC2)nc2[nH]cc(-c3ccc4nnn(C)c4c3)c12 [Compound 3120, cis-4-((4-Methoxy-5-(1-methyl-1H-benzo[d][1,2,3]triazol-6-yl)-7H-pyrrolo[2,3-d]pyrimidin-2-yl)amino)-1-methylcyclohexan-1-ol]
29 | 8.47 | C[C@@H](Nc1ncc2c(-c3ccc4nccn4n3)c[nH]c2n1)C1CC1 [Compound 918, (R)—N-(1-Cyclopropylethyl)-5-(imidazo[1,2-b]pyridazin-6-yl)-7H-pyrrolo [2,3-d]pyrimidin-2-amine]
30 | 8.49 | COc1nc(NC2CCC(F)(F)CC2)nc2[nH]cc(-c3ccn4nccc4c3)c12 [Compound 2206, N-(4,4-Difluorocyclohexyl)-4-methoxy-5-(pyrazolo[1,5-a]pyridin-5-yl)-7H-pyrrolo[2,3-d]pyrimidin-2-amine]
31 | 8.54 | CNc1ncc2c(-c3ccc4ncccc4c3)c[nH]c2n1 [Compound 1863, N-Methyl-5-(quinolin-6-yl)-7H-pyrrolo[2,3-d]pyrimidin-2-amine]
32 | 8.64 | CN1CCN(c2ccc(Nc3ncc4c(-c5ccc6ncccc6c5)c[nH]c4n3)cn2)CC1 [Compound 1894, N-(6-(4-Methylpiperazin-1-yl)pyridin-3-yl)-5-(quinolin-6-yl)-7H-pyrrolo [2,3-d]pyrimidin-2-amine]
33 | 8.77 | Cc1nc2c(F)cc(-c3c[nH]c4nc(NCC(C)C)ncc34)cc2n1C(C)C [Compound 506, 5-(4-Fluoro-1-isopropyl-2-methyl-1H-benzo[d]imidazol-6-yl)-N-isobutyl-7H-pyrrolo[2,3-d]pyrimidin-2-amine]
34 | 8.82 | COc1nc(N[C@@H]2[C@@H]3COC[C@@H]32)nc2[nH]cc(-c3ccn4nccc4c3)c12 [Compound 2324, N-((1R,5S,6s)-3-oxabicyclo[3.1.0]hexan-6-yl)-4-methoxy-5-(pyrazolo [1,5-a]pyridin-5-yl)-7H-pyrrolo[2,3-d]pyrimidin-2-amine]
35 | 8.89 | C[C@]1(O)CC[C@@H](Nc2ncc3c(-c4ccc5nccn5c4)c[nH]c3n2)CC1 [Compound 2349, cis-4-((5-(Imidazo[1,2-a]pyridin-6-yl)-7H-pyrrolo[2,3-d]pyrimidin-2-yl)amino)-1-methylcyclohexan-1-ol]
